Assays:
[1] = system: Human lens epithelial cells (HLEpiC); assay: Inhibitory action on actin stress fiber formation (phalloidin staining, confocal microscopy); format: cell-based; conditions: treated about an hour
Method: Human lens epithelial cells (HLEpiC (ScienCell Research Laboratories)) were diluted with a medium (Epithelial Cell Medium (ScienCell Research Laboratories)), dispensed to each well of Poly-L-lysine (ScienCell Research Laboratories) coated Imaging Chamber CG at 100 μL/well (about 5000 cells/cm^2), and cultured in a carbon dioxide incubator (37° C., 5% CO2) until about 50% confluent. The medium was removed with vacuum suction and a test substance, a positive control, a comparative control, or the medium (control) at each concentration given below was added to each well at 300 μL/well:
Test substance: Ripasudil with a concentration of 10 μM, 100 μM or 1 mM,
Positive control: Cytochalasin D with a concentration of 2 μM,
These were treated in a carbon dioxide incubator (37° C., 5% CO2) for about an hour, and then washed once with the medium. 4% Paraformaldehyde Phosphate Buffer Solution (Wako Pure Chemical Industries, Ltd.) (hereinafter, referred to as a fixative solution) was added at 300 μL/well, and fixation was carried out at room temperature for 2 minutes. After washing with the medium, 0.5% Triton X-100 (Roche Diagnostics K.K.) was added at 300 μL/well, and penetrated at room temperature for 2 minutes. After washing with the medium, the fixative solution was added at 300 μL/well, and fixation was carried out at room temperature for 20 minutes.
Separately, 25 μL of 14 μM Actin-Stain™ 555 phalloidin (Cytoskeleton, Inc.) (hereinafter, referred to as Phalloidin) was added to 3475 μL of 10 mM phosphate buffered saline (Wako Pure Chemical Industries, Ltd.) to produce 100 nM Phalloidin.
This 100 nM Phalloidin was added to each well washed with the medium at 200 μL/well, and staining was carried out at room temperature in a dark place for about 60 minutes.
After washing with the medium, the chamber was removed, and […] Mounting Medium with DAPI (Vector Laboratories, Inc.) was dropped onto a cover glass with a few drops. A slide glass was placed thereon and this was left to stand at room temperature in a dark place for 30 minutes or more, and adhesion and nuclear staining were carried out and then observed by a confocal laser scanning microscope.

[2] = system: HLEpiC; assay: Determination of G-actin/F-actin ratio using G-Actin/F-Actin In Vivo Assay Kit; format: cell-based, human; conditions: 2 μM, about an hour; control 1.16
Method: HLEpiC was diluted with a medium (Epithelial Cell Medium), and dispensed to a Poly-L-lysine coated T-75 flask at about 5000 cells/cm^2, and cultured in a carbon dioxide incubator (37° C., 5% CO2) until about 50% confluent. A test substance, a positive control or the medium (control) at each concentration given below was added to each flask at 20 mL.
(§1) Test substance: Ripasudil with a concentration of […], 100 μM or 1 mM,
Positive control: CD with a concentration of 2 μM, and
These were treated in a carbon dioxide incubator (37° C., 5% CO2) for about an hour.
To 20 mL of Lysis and F-actin stabilization buffer was added 200 μL of 100 mM ATP stock solution and 200 μL of 100× Protease inhibitor cocktail stock to produce LAS2 buffer, and this was incubated in a carbon dioxide incubator (37° C.) for about 30 minutes. Warmed LAS2 buffer was added at 2.5 mL to each flask in which the medium was removed with vacuum suction.
Next, adherent HLEpiC was completely scraped with a cell scraper and transferred with the LAS2 buffer to a conical tube, and HLEpiC was crushed with a micropipette (hereinafter, referred to as cell solution). This cell solution was incubated in a carbon dioxide incubator (37° C.) for about 10 minutes and then centrifuged for 10 minutes (2000 rpm, room temperature). The supernatant was dispensed into an ultracentrifugal tube at 1.8 mL and centrifuged for an hour with an ultracentrifuge (100,000× g, 37° C.). At this time, F-actin is precipitated and G-actin remains in the supernatant.
The supernatant was transferred to a conical tube while being careful not to suck F-actin precipitates.
To precipitates of each sample was added 1.8 mL of F-actin depolymerizing buffer, and this was incubated under ice-cold conditions for an hour to depolymerize actin.
From each supernatant sample and precipitate sample, 100 μL each was put in a 1.5 mL Eppendorf tube, and 25 μL of 5×SDS sample buffer was added and stirred.
Each sample was boiled in a boiling water bath for 5 minutes.
Each sample was subjected to SDS-polyacrylamide gel electrophoresis, followed by Western blotting.
Next, after treatment using a Western blotting detection reagent (ECL Select Western Blotting Detection Reagent, GE Healthcare Japan), proteins were detected using a Lumino image analyzer. The quantities of G-actin and F-actin were determined using an analysis software (ImageQuant TL, GE Healthcare Japan) and the G-actin/F-actin ratio was calculated.
The variation in the quantity of F-actin required to form actin stress fibers was evaluated by comparison with the G-actin/F-actin ratio of untreated (Control) cells.

[3] = system: Human lens epithelial cells (HLEpiC); assay: Reversibility of inhibition of actin stress fiber formation after removal; format: cell-based; conditions: recultured about 24 hours after removal
Method: After removal of the test substance, positive control or comparative control in Example 1, the cells were recultured for about another 24 hours, treated in accordance with the operation in Example 1, and then observed by a confocal laser scanning microscope in the same manner as in Example 1 to observe the reversibility of actin stress fibers.

[4] = system: HLEpiC; assay: Inhibitory action on cell migration (Oris Cell Migration plate); format: cell-based, human; conditions: about 24 and 48 hours after treatment
Method: HLEpiC was diluted with a medium (Epithelial Cell Medium) and dispensed to Poly-L-lysine coated Oris™ Cell Migration 96 well plate, to which a stopper was firmly attached, at 50 μL/well (25000 cells/well) and cultured in a carbon dioxide incubator (37° C., 5% CO2) for 24 hours. The stopper was removed, and after brief washing with the medium, a solution obtained by adding 5 μL of 10 mM Cell Tracker Green Fluorescent Probe (Lonza Walkersville, Inc.) to 4995 μL of the medium was added at 100 μL/well, and the cells were stained in a carbon dioxide incubator (37° C., 5% CO2) for about 30 minutes. After brief washing with the medium, the medium was further added and the cells were cultured in a carbon dioxide incubator (37° C., 5% CO2) for about 30 minutes.
After brief washing with the medium, a test substance, a positive control, a comparative control or the medium (control) at each concentration given below was added at 100 μL/well.
as §1
Positive control: CD with a concentration of 2 μM,
These were cultured in a carbon dioxide incubator (37° C., 5% CO2). The state of HLEpiC in the Detection Zone in each sample was observed by a confocal laser scanning microscope about 24 hours after the treatment and 48 hours after the treatment.

[5] = system: HLEpiC; assay: Reversibility of inhibition of cell migration after removal; format: cell-based, human; conditions: for time after removal at which Detection Zone was filled with HLEpiC: then removal
Method: After the operation in Example 4, the test substance, the positive control, or the comparative control was removed, and after brief washing with the medium, the medium was added at 100 μL/well, and the cells were cultured in a carbon dioxide incubator (37° C., 5% CO2).

[6] = system: Soemmerring's ring, posterior capsule opacification (PCO); conditions: cited from earlier work
[7] = system: myofibroblasts; conditions: cited from earlier work
[8] = system: bovine lens cells; conditions: cited from earlier work
[9] = system: hyalocyte-containing collagen gel; conditions: cited from earlier work

C=C1[C@@H](C)[C@H]2[C@H](Cc3ccccc3)NC(=O)[C@]23[C@H](OC(C)=O)/C=C/[C@@](C)(O)C(=O)[C@@H](C)C/C=C/[C@H]3[C@@H]1O [Cytochalasin D, reference compound]
actin stress fibers (observation) ([1]; 2 μM): significantly disappear
G-actin/F-actin ratio [2]: 25.03
reversibility of actin stress fibers ([3]; 2 μM): recovered
cell migration into Detection Zone (observation) ([4]; 2 μM): inhibitory action on cell migration was further recognized
time after removal at which Detection Zone was filled with HLEpiC ([5]; 2 μM treatment): about 48 hours

CC1CNCCN1S(=O)(=O)c1cccc2cnccc12 (stereo not shown) [H-7]
effect on posterior capsule opacification (PCO) [6]: ineffective
resolving Soemmerring's ring [6]: effective

Cc1cncc2cccc(S(=O)(=O)N3CCCNC[C@@H]3C)c12 [H-1152]
transdifferentiation and contraction of myofibroblasts induced by TGF-β [7]: inhibit the transdifferentiation and contraction

O=S(=O)(c1cccc2cnccc12)N1CCCNCC1 [HA-1077]
transdifferentiation and contraction of myofibroblasts induced by TGF-β [7]: inhibit the transdifferentiation and contraction

O=c1[nH]ccc2c(S(=O)(=O)N3CCCNCC3)cccc12 [HF, Hydroxyfasudil]
contraction induced by cytokines such as PDGF-BB and TGF-β2 [8]: inhibited contraction

O=S(=O)(c1cccc2c(I)cccc12)N1CCCNCC1 [ML-7]
transdifferentiation and contraction of myofibroblasts induced by TGF-β [7]: inhibit the transdifferentiation and contraction

C[C@@H](N)[C@H]1CC[C@H](C(=O)Nc2ccncc2)CC1 [Y-27632, reference compound]
actin stress fibers (observation) ([1]; 1 mM): disappear
transdifferentiation and contraction of myofibroblasts induced by TGF-β [7]: inhibit the transdifferentiation and contraction
reversibility of actin stress fibers ([3]; 1 mM): recovered
contraction induced by cytokines such as PDGF-BB and TGF-β2 [8]: inhibited contraction
cell migration into Detection Zone (observation) ([4]; 1 mM): inhibitory action on cell migration was also recognized
state of Detection Zone about 48 hours after removal ([5]; 1 mM treatment, about 48 hours after removal): not filled with HLEpiC
time after removal at which Detection Zone was filled with HLEpiC ([5]; 1 mM treatment): 116 h

O=S(=O)(c1cccc2cnccc12)N1CCCNCC1 [fasudil]
hyalocyte-containing collagen gel contraction [9]: inhibits

— US9844556B2, “Preventive/therapeutic method and preventive/therapeutic agent for complications after cataract surgery” (KOWA COMPANY, LTD., priority 2015, dated 2017)
